ChEMBL document CHEMBL1811857, “Targeting HIV entry through interaction with envelope glycoprotein 120 (gp120): synthesis and antiviral evaluation of 1,3,5-triazines with aromatic amino acids” (J Med Chem, 2011)
The source made the active and inactive calls. The rule behind the calls is not given here.

Columns and labels:
[1] = system: CCRF-CEM; assay: Cytotoxicity against human CEM cells after 4 days by Coulter counter analysis; assay type: cell-based; conditions: 96 h, read-out: EC50 (the source's name)
[2] = system: Human immunodeficiency virus 2; assay: Antiviral activity against HIV2 ROD infected in human CEM cells assessed as inhibition of virus-induced cytopathicity after 4 days; assay type: functional, organism-based; conditions: Human immunodeficiency virus 2, ISOLATE ROD, CCRF-CEM, 96 h
[3] = system: Human immunodeficiency virus 1; assay: Antiviral activity against HIV1 3B infected in human CEM cells assessed as inhibition of virus-induced cytopathicity after 4 days; assay type: functional, organism-based; conditions: Human immunodeficiency virus 1, 3B, CCRF-CEM, 96 h
[4] = Solubility of the compound at >10 uM; assay type: physicochemical
[5] = system: Human immunodeficiency virus 1; assay: Binding affinity to HIV1 3B recombinant gp-120 at 12.5 uM after 5 mins by surface plasmon resonance analysis
[6] = system: Human immunodeficiency virus 1; assay: Binding affinity to HIV1 3B recombinant gp-120 at 50 uM after 5 mins by surface plasmon resonance analysis
[7] = system: Human immunodeficiency virus 1; assay: Antiviral activity against HIV1 3a-L infected in human PBMC cells assessed as inhibition of virus-induced cytopathicity after 4 days; assay type: functional, organism-based; conditions: Human immunodeficiency virus 1, 3a-L, 96 h
[8] = system: PBMC; assay: Mitogenic activity in human PBMC after 3 days; assay type: functional, cell-based
[9] = system: PBMC; assay: Induction of CD25 expression in human PBMC after 3 days by FACS analysis; assay type: functional, cell-based
[10] = system: PBMC; assay: Induction of CD69 expression in human PBMC after 3 days by FACS analysis; assay type: functional, cell-based
[11] = system: PBMC; assay: Induction of HLA-DR expression in human PBMC after 3 days by FACS analysis; assay type: functional, cell-based
[12] = system: PBMC; assay: Cytotoxicity against human PBMC at 50 uM after 3 days; assay type: cell-based; conditions: 72 h
[13] = system: Human immunodeficiency virus 1; assay: Binding affinity to HIV1 3B recombinant gp-120 at 12.5 uM after 5 mins by surface plasmon resonance analysis in presence of […]
[14] = Binding affinity to HIV1 3B recombinant gp-120 after 5 mins using low density (792 RU) sensor chip by surface plasmon resonance analysis; parameters: species or system Human immunodeficiency virus 1
[15] = Binding affinity to HIV1 ADA recombinant gp-120 after 5 mins using low density (792 RU) sensor chip by surface plasmon resonance analysis; parameters: species or system Human immunodeficiency virus 1
[16] = Binding affinity to HIV1 3B recombinant gp-120 after 5 mins using high density (10400 RU) sensor chip by surface plasmon resonance analysis; parameters: species or system Human immunodeficiency virus 1

O=C(O)C[C@H](Nc1nc(NCCN(CCNc2nc(N[C@@H](CC(=O)O)C(=O)O)nc(N[C@@H](Cc3c[nH]c4ccccc34)C(=O)O)n2)CCNc2nc(N[C@@H](Cc3c[nH]c4ccccc34)C(=O)O)nc(N[C@H](CC(=O)O)C(=O)O)n2)nc(N[C@@H](Cc2c[nH]c3ccccc23)C(=O)O)n1)C(=O)O
CC50 [1]: > 250 µM
EC50 [2]: > 250 µM
EC50 [3]: 216 µM

O=C(O)[C@H](Cc1ccccc1)Nc1nc(NCc2cccc(CNc3nc(N[C@@H](Cc4ccccc4)C(=O)O)nc(N[C@@H](Cc4ccccc4)C(=O)O)n3)c2)nc(N[C@@H](Cc2ccccc2)C(=O)O)n1
solubility [4]: Insoluble
CC50 [1]: > 10 µM
EC50 [2]: > 10 µM
EC50 [3]: > 10 µM

CN[C@@H]1[C@H](O[C@@H]2OC[C@@H](O)[C@H](O)[C@H]2O)[C@@H](O)[C@H](O[C@H]2c3cc(C)c(C(=O)N[C@H](C)C(=O)O)c(O)c3-c3c(cc4c(c3O)C(=O)c3cc(OC)cc(O)c3C4=O)[C@@H]2O)O[C@@H]1C [PRADIMICIN A]
CC50 [1]: > 50 µM
EC50 [2]: 5.9 µM
EC50 [3]: 5.2 µM

CCc1c(CNc2nc(N[C@@H](Cc3ccc(O)cc3)C(=O)O)nc(N[C@@H](Cc3c[nH]c4ccccc34)C(=O)O)n2)c(CC)c(CNc2nc(N[C@@H](Cc3ccc(O)cc3)C(=O)O)nc(N[C@@H](Cc3c[nH]c4ccccc34)C(=O)O)n2)c(CC)c1CNc1nc(N[C@@H](Cc2ccc(O)cc2)C(=O)O)nc(N[C@@H](Cc2c[nH]c3ccccc23)C(=O)O)n1
CC50 [1]: > 250 µM
EC50 [2]: 24 µM
EC50 [3]: 26 µM
Activity [5]: Active

CN[C@@H]1[C@H](O[C@@H]2O[C@H](CO)[C@@H](O)[C@H](OS(=O)(=O)O)[C@H]2O)[C@@H](O)[C@H](O[C@H]2c3cc(C)c(C(=O)N[C@H](C)C(=O)O)c(O)c3-c3c(cc4c(c3O)C(=O)c3cc(OC)cc(O)c3C4=O)[C@@H]2O)O[C@@H]1C [PRADIMICIN S]
CC50 [1]: > 250 µM

CCc1c(CNc2nc(NCCc3c[nH]c4ccccc34)nc(N[C@@H](Cc3c[nH]c4ccccc34)C(=O)O)n2)c(CC)c(CNc2nc(NCCc3c[nH]c4ccccc34)nc(N[C@@H](Cc3c[nH]c4ccccc34)C(=O)O)n2)c(CC)c1CNc1nc(NCCc2c[nH]c3ccccc23)nc(N[C@@H](Cc2c[nH]c3ccccc23)C(=O)O)n1
solubility [4]: Insoluble
CC50 [1]: > 10 µM
EC50 [2]: > 10 µM
EC50 [3]: > 10 µM
Activity [5]: Active

CCc1c(CNc2nc(N[C@@H](Cc3c[nH]c4ccccc34)C(=O)O)nc(N[C@H](Cc3c[nH]c4ccccc34)C(=O)O)n2)c(CC)c(CNc2nc(N[C@@H](Cc3c[nH]c4ccccc34)C(=O)O)nc(N[C@H](Cc3c[nH]c4ccccc34)C(=O)O)n2)c(CC)c1CNc1nc(N[C@@H](Cc2c[nH]c3ccccc23)C(=O)O)nc(N[C@H](Cc2c[nH]c3ccccc23)C(=O)O)n1
CC50 [1]: > 250 µM
EC50 [2]: 22 µM
EC50 [3]: 19 µM
Activity [5]: Active

O=C(O)[C@H](Cc1c[nH]c2ccccc12)Nc1nc(NCCN(CCNc2nc(N[C@@H](Cc3c[nH]c4ccccc34)C(=O)O)nc(N[C@H](Cc3c[nH]c4ccccc34)C(=O)O)n2)CCNc2nc(N[C@@H](Cc3c[nH]c4ccccc34)C(=O)O)nc(N[C@H](Cc3c[nH]c4ccccc34)C(=O)O)n2)nc(N[C@H](Cc2c[nH]c3ccccc23)C(=O)O)n1
CC50 [1]: > 250 µM
EC50 [2]: 65 µM
EC50 [3]: 20 µM

O=C(O)[C@H](Cc1ccc(O)cc1)Nc1nc(NCCOCCOCCNc2nc(N[C@@H](Cc3ccc(O)cc3)C(=O)O)nc(N[C@H](Cc3ccc(O)cc3)C(=O)O)n2)nc(N[C@@H](Cc2ccc(O)cc2)C(=O)O)n1
CC50 [1]: > 250 µM
EC50 [2]: > 250 µM
EC50 [3]: > 250 µM

O=C(O)[C@H](Cc1c[nH]c2ccccc12)Nc1nc(NCCOCCOCCNc2nc(N[C@@H](Cc3c[nH]c4ccccc34)C(=O)O)nc(N[C@H](Cc3c[nH]c4ccccc34)C(=O)O)n2)nc(N[C@@H](Cc2c[nH]c3ccccc23)C(=O)O)n1
CC50 [1]: > 250 µM
EC50 [2]: 120 µM
EC50 [3]: 112 µM

O=C(O)[C@H](Cc1ccc(O)cc1)Nc1nc(NCc2ccccc2)nc(N[C@@H](Cc2ccc(O)cc2)C(=O)O)n1
Activity [6]: inactive

CCc1c(CNc2nc(N[C@@H](Cc3ccc(O)cc3)C(=O)O)nc(N[C@@H](Cc3ccc(O)cc3)C(=O)O)n2)c(CC)c(CNc2nc(N[C@@H](Cc3ccc(O)cc3)C(=O)O)nc(N[C@@H](Cc3ccc(O)cc3)C(=O)O)n2)c(CC)c1CNc1nc(N[C@@H](Cc2ccc(O)cc2)C(=O)O)nc(N[C@@H](Cc2ccc(O)cc2)C(=O)O)n1
EC50 [7]: 20 µM
CC50 [1]: > 250 µM
EC50 [2]: 22 µM
EC50 [3]: 22 µM
Activity [8]: inactive
Activity [9]: inactive
Activity [10]: inactive
Activity [11]: inactive
Activity [12]: Non-toxic
Activity [5]: Active
Activity [6]: Active
Activity [13]: Active
Kd [14]: 1.97 µM
Kd [15]: 1.71 µM
Kd [16]: 2.61 µM

O=C(O)[C@H](Cc1ccc(O)cc1)Nc1nc(NCc2cccc(CNc3nc(N[C@@H](Cc4ccc(O)cc4)C(=O)O)nc(N[C@@H](Cc4ccc(O)cc4)C(=O)O)n3)c2)nc(N[C@@H](Cc2ccc(O)cc2)C(=O)O)n1
CC50 [1]: > 250 µM
EC50 [2]: 80 µM
EC50 [3]: 148 µM
Activity [6]: Active

O=C(O)[C@H](Cc1c[nH]c2ccccc12)Nc1nc(NCc2ccccc2)nc(N[C@@H](Cc2c[nH]c3ccccc23)C(=O)O)n1
Activity [6]: inactive

CCc1c(CNc2nc(N[C@@H](Cc3c[nH]c4ccccc34)C(=O)O)nc(N[C@@H](Cc3c[nH]c4ccccc34)C(=O)O)n2)c(CC)c(CNc2nc(N[C@@H](Cc3c[nH]c4ccccc34)C(=O)O)nc(N[C@@H](Cc3c[nH]c4ccccc34)C(=O)O)n2)c(CC)c1CNc1nc(N[C@@H](Cc2c[nH]c3ccccc23)C(=O)O)nc(N[C@@H](Cc2c[nH]c3ccccc23)C(=O)O)n1
EC50 [7]: 20 µM
CC50 [1]: > 250 µM
EC50 [2]: 22 µM
EC50 [3]: 16 µM
Activity [8]: inactive
Activity [9]: inactive
Activity [10]: inactive
Activity [11]: inactive
Activity [12]: Non-toxic
Activity [5]: Active
Activity [6]: Active
Activity [13]: Active
Kd [14]: 1.61 µM
Kd [15]: 2.51 µM
Kd [16]: 2.61 µM

O=C(O)[C@H](Cc1ccc(O)cc1)Nc1nc(N[C@@H](Cc2ccc(O)cc2)C(=O)O)nc(N2CCN(c3nc(N[C@@H](Cc4ccc(O)cc4)C(=O)O)nc(N[C@@H](Cc4ccc(O)cc4)C(=O)O)n3)CC2)n1
CC50 [1]: > 250 µM
EC50 [2]: ≥ 250 µM
EC50 [3]: ≥ 250 µM

O=C(O)[C@H](Cc1ccc(O)cc1)Nc1nc(NCCN(CCNc2nc(N[C@@H](Cc3ccc(O)cc3)C(=O)O)nc(N[C@H](Cc3ccc(O)cc3)C(=O)O)n2)CCNc2nc(N[C@@H](Cc3ccc(O)cc3)C(=O)O)nc(N[C@H](Cc3ccc(O)cc3)C(=O)O)n2)nc(N[C@H](Cc2ccc(O)cc2)C(=O)O)n1
CC50 [1]: > 250 µM
EC50 [2]: ≥ 250 µM
EC50 [3]: ≥ 250 µM

O=C(O)[C@H](Cc1ccccc1)Nc1nc(NCCN(CCNc2nc(N[C@@H](Cc3ccccc3)C(=O)O)nc(N[C@H](Cc3ccccc3)C(=O)O)n2)CCNc2nc(N[C@@H](Cc3ccccc3)C(=O)O)nc(N[C@H](Cc3ccccc3)C(=O)O)n2)nc(N[C@H](Cc2ccccc2)C(=O)O)n1
CC50 [1]: > 250 µM
EC50 [2]: 216 µM
EC50 [3]: 65 µM

O=C(O)[C@H](Cc1ccccc1)Nc1nc(N[C@@H](Cc2ccccc2)C(=O)O)nc(N2CCN(c3nc(N[C@@H](Cc4ccccc4)C(=O)O)nc(N[C@@H](Cc4ccccc4)C(=O)O)n3)CC2)n1
CC50 [1]: > 250 µM
EC50 [2]: 121 µM
EC50 [3]: 106 µM

O=C(O)[C@H](Cc1ccccc1)Nc1nc(NCCOCCOCCNc2nc(N[C@@H](Cc3ccccc3)C(=O)O)nc(N[C@H](Cc3ccccc3)C(=O)O)n2)nc(N[C@@H](Cc2ccccc2)C(=O)O)n1
CC50 [1]: > 250 µM
EC50 [2]: ≥ 250 µM
EC50 [3]: ≥ 250 µM

CCc1c(CNc2nc(N[C@@H](CC(=O)O)C(=O)O)nc(N[C@@H](Cc3c[nH]c4ccccc34)C(=O)O)n2)c(CC)c(CNc2nc(N[C@@H](CC(=O)O)C(=O)O)nc(N[C@@H](Cc3c[nH]c4ccccc34)C(=O)O)n2)c(CC)c1CNc1nc(N[C@@H](CC(=O)O)C(=O)O)nc(N[C@@H](Cc2c[nH]c3ccccc23)C(=O)O)n1
CC50 [1]: > 250 µM
EC50 [2]: 33 µM
EC50 [3]: 18 µM
Activity [5]: Active
